Tested on: serum uric acid
Test: Serum uric acid levels on day 9 of the study (Example 6)
Format: in vivo, human
Procedure: Human clinical studies using the compositions described in examples 2A, 3A, 4A, 5A were conducted as described: A multi-center, double-blind, placebo-controlled study in 48 treatment-naïve HIV-1-infected subjects, randomized 3:1 (treatment:placebo). Patients were male, 18-65 years with chronic HIV infection, but no history of AIDS-defining illness. Patients were antiretroviral treatment naïve or <14 days prior therapy and had no pre-existing RTI or PI drug resistance and no co-infection with acute HAV, chronic HBV, active HCV. Patient CD4+ cell count was ≧50 cells/mm^3 for 2 cohorts, then ≧200 cells/mm^3 or ≧350 cells/mm^3 depending on site.
The compositions were administered over a 7-day treatment period plus one morning dose for PK purposes on day 8. (It should be noted that in some instances multiple doses of the same composition were administered, in order to achieve the required total dose of compound 1; i.e.in order to achieve a dose of 400 mg compound 1, a patient may have taken four 100 mg compositions or two 200 mg compositions, depending on the dosage form.) Four sequential dose cohorts were administered as follows:
Serum uric acid levels were recorded on day 9 of the study, and are shown in the table below and graphically in FIG. 8.

## O=C(CSc1nnc(Br)n1-c1ccc(C2CC2)c2ccccc12)Nc1ccc(C(=O)O)cc1Cl [Compound 1, 4-(2-(5-bromo-4-(1-cyclopropylnaphthalen-4-yl)-4H-1,2,4-triazol-3-ylthio)acetamido)-3-chlorobenzoic acid]
400 mg BID
  Mean serum UA reduction: −30%
600 mg QD
  Mean serum UA reduction: −21%
800 mg QD
  Mean serum UA reduction: −21%
1000 mg QD
  Mean serum UA reduction: −28%
